Data taken from patent US9969677B2, “Histone acetyltransferase modulators and uses thereof” (THE TRUSTEES OF COLUMBIA UNIVERSITY IN THE CITY OF NEW YORK, priority 2010, dated 2018).

How the values were obtained:
[1] = cited from earlier work
[2] = cited from earlier work; remark: listed apart in the source
[3] = target: T1, p300 (Homo sapiens, UniProt Q09472); assay: acetyltransferase activity assay (Enzo Life Sciences), P300; format: biochemical; conditions: for EC50: Table 1, activation of P300 according to b440
T1 construct: the catalytic domain of human CBP, PCAF, p300 and GCN5 (Enzo Life Sci., USA) can be used; purchased Enzo Life Sciences
T1 sequence (Q09472 1287-1663 limits assumed): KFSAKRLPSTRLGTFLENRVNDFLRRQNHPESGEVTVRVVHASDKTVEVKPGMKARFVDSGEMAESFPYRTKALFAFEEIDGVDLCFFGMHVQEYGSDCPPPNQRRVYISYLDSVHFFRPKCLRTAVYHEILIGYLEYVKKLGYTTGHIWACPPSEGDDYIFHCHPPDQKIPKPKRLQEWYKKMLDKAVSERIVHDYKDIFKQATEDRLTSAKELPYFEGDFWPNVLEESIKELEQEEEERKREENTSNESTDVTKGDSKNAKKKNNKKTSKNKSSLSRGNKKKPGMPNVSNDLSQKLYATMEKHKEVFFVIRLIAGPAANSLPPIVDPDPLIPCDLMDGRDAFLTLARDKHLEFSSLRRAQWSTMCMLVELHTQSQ
Protocol: (§1) Commercial human HATs (CBP, p300, GCN5, PCAF (Enzo Life Sciences), and Tip60 (SignalChem)) were assayed in an acetyltransferase activity assay (Enzo Life Sciences, Cat. No. ADI-907-026). Each well contained, in addition to a HAT, histone 3 as the acetyl acceptor, acetyl-CoA as the acetyl donor in the reaction mixture and compounds (1% DMSO) at the appropriate concentrations. The reaction was carried out at room temperature. Enzyme activity was measured by monitoring the breakage of the substrate acetyl-CoA by HAT using a proprietary detection mixture. The fluorescent signal was measured using a Tecan microplate reader (excitation: 380 nm, emission: 520 nm). The assay methodology was adopted as it provided a 10-fold higher signal/background ratio and was more sensitive than other assays. […] Compound 10 had no effect with either P300 or CBP (FIG. 13).

[4] = target: T2, CBP (Homo sapiens, UniProt Q92793); assay: acetyltransferase activity assay (Enzo Life Sciences), CBP; format: biochemical
T2 construct: the catalytic domain of human CBP, PCAF, p300 and GCN5 (Enzo Life Sci., USA) can be used; purchased Enzo Life Sciences
T2 sequence (Q92793 1323-1700 limits assumed): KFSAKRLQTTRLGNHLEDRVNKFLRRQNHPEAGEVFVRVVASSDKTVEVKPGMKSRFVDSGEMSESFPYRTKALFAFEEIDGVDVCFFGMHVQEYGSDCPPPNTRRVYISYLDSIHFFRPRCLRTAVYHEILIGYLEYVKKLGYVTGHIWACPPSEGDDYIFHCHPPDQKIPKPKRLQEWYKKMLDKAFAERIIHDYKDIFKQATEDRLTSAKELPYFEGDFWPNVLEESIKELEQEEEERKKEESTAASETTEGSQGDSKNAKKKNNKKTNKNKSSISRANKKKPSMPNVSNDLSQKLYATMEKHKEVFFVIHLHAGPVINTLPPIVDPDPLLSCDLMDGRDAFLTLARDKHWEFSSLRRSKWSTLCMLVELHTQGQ
Protocol: as §1

[5] = in vivo; cited from earlier work
[6] = cited from earlier work; remark: listed apart in the source
[7] = target: T3, Tip60 (Homo sapiens, UniProt Q92993); assay: acetyltransferase activity assay (Enzo Life Sciences), Tip60; format: biochemical; conditions: histone 3 acetyl acceptor, acetyl-CoA, room temperature
T3 construct: purchased SignalChem
T3 sequence (Q92993 whole entry): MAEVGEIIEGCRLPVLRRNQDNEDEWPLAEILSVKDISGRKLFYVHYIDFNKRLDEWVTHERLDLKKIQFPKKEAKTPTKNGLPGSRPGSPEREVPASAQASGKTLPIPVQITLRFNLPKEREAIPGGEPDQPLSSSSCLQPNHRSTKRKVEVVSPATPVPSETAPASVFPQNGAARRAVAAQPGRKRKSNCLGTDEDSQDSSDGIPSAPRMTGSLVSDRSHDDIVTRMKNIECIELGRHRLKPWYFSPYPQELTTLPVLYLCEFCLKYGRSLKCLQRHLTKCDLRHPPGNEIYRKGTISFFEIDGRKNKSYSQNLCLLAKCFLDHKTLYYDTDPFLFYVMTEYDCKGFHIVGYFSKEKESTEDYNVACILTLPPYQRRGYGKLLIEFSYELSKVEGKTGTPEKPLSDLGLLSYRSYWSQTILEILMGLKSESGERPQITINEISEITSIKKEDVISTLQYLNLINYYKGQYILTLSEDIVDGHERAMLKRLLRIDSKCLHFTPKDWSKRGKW
Protocol: as §1

[8] = test system: histone acetylation; conditions: cited from earlier work
[9] = test system: Aβ-induced reduction of LTP; assay: rescue of Aβ-induced reduction of LTP
Text: Synaptic dysfunction is a major hallmark of AD (Histol Histopathol, 1995. 10(2): p. 509-19; herein incorporated by reference in its entirety). An aspect of the drug screening protocol can include a measurement of the effect of compounds onto synaptic function. The APP/PS1 mouse presents an impairment of LTP by the age of 3 months (Ann Neurol, 2004. 55(6): p. 801-14; herein incorporated by reference in its entirety), and therefore permits a relatively fast assessment of synaptic function without waiting a long time for mice aging. LTP can be examined because it is a type of synaptic plasticity thought to underlie learning and memory. D rescues the Aβ-induced reduction of LTP, and other compounds can also be screened to identify those that can re-establish normal LTP. The compounds can be applied for 30 min. Controls can be performed on slices from APP/PS1 mice treated with vehicle, and WT mice treated with compound or vehicle. If the compounds re-establish normal LTP in APP/PS1 slices, one can conclude that the compounds rescue impairment of synaptic plasticity in APP/PS1 mice. Cognitive impairment can also be investigated (see Example 5).

[10] = test system: PC12 cells, sympathetic neurons and hippocampal neurons; conditions: cited from earlier work
[11] = test system: APP/PS1 mouse; conditions: APP/PS1 double transgenic mouse; cited from earlier work
[12] = test system: APP/PS1 mouse; conditions: APP/PS1 double transgenic mouse; cited from earlier work; remark: listed apart in the source
[13] = in vivo; cited from earlier work; remark: listed apart in the source

CCOc1ccccc1C(=O)Nc1ccc(Cl)c(C(F)(F)F)c1 [CTB]
membrane permeability [1]: membrane-impermeable | solubility [2]: insoluble

CCCCCCCCCCCCCCCc1cccc(OCC)c1C(=O)Nc1ccc(Cl)c(C(F)(F)F)c1 [CTPB]
membrane permeability [1]: membrane-impermeable | solubility [2]: insoluble

CCOc1cccc(OCCN2CCCCC2)c1C(=O)Nc1ccc(Cl)c(C(F)(F)F)c1 [Compound 8, N-[4-chloro-3-(trifluoromethyl)phenyl]-2-ethoxy-6-[2-(piperidin-1-yl)ethoxy] benzamide]
EC50 [3]: 2.75 nM

CCOc1cccc(OCCN2CCOCC2)c1C(=O)Nc1ccc(Cl)c(C(F)(F)F)c1 [Compound 9, N-[4-chloro-3-(trifluoromethyl)phenyl]-2-ethoxy-6-(2-morpholinoethoxy) benzamide]
EC50 [3]: 2.07 nM

CCOc1cccc(OCCN2CCNCC2)c1C(=O)Nc1ccc(Cl)c(C(F)(F)F)c1 [Compound 10, N-[4-chloro-3-(trifluoromethyl)phenyl]-2-ethoxy-6-[2-(piperazin-1-yl)ethoxy]benzamide]
EC50 [3]: 2.1 nM | effect on P300, initial screening (FIG. 13) [3]: no effect | effect on CBP, initial screening (FIG. 13) [4]: no effect

CCOc1cccc(OCCN2CCN(C)CC2)c1C(=O)Nc1ccc(Cl)c(C(F)(F)F)c1 [Compound 11, N-[4-chloro-3-(trifluoromethyl)phenyl]-2-ethoxy-6-[2-(4-methylpiperazin-1-yl)ethoxy]benzamide]
EC50 [3]: 2.28 nM | effect on P300, initial screening (FIG. 13) [3]: inhibited | effect on CBP, initial screening (FIG. 13) [4]: no effect

CCOc1cccc(OCCN(CC)CC)c1C(=O)Nc1ccc(Cl)c(C(F)(F)F)c1 [Compound 12, N-(4-chloro-3-(trifluoromethyl)phenyl)-2-(2-(diethylamino)ethoxy)-6-ethoxybenzamide]
EC50 [3]: 1.47 nM

CCOc1cccc(OCCCN(C)C)c1C(=O)Nc1ccc(Cl)c(C(F)(F)F)c1 [Compound 13, N-[4-chloro-3-(trifluoromethyl)phenyl]-2-[3-(dimethylamino)propoxy]-6-ethoxybenzamide]
EC50 [3]: 1.32 nM

CCOc1cccc(OCCN(C)C)c1C(=O)NCc1ccc(Cl)c(C(F)(F)F)c1 [Compound 16, N-[4-chloro-3-(trifluoromethyl)benzyl]-2-(2-(dimethylamino)ethoxy)-6-ethoxybenzamide]
EC50 [3]: 1.84 nM | effect on CBP, initial screening (FIG. 13) [4]: activated only CBP

CCOc1cccc(OCCN(C)C)c1/C=N/c1ccc(Cl)c(C(F)(F)F)c1 [Compound 17, 4-chloro-N-[2-(2-(dimethylamino)ethoxy)-6-ethoxybenzylidene]-3-(trifluoromethyl)aniline]
effect on CBP, initial screening (FIG. 13) [4]: activated only CBP

CCOc1ccc(OCCN(C)C)c(C(=O)Nc2ccc(Cl)c(C(F)(F)F)c2)c1 [Compound 18, N-(4-chloro-3-(trifluoromethyl)phenyl)-2-(2-(dimethylamino)ethoxy)-5-ethoxybenzamide]
EC50 [3]: 2.3 nM | effect on CBP, initial screening (FIG. 13) [4]: activated only CBP

CCOc1ccc(C(=O)Nc2ccc(Cl)c(C(F)(F)F)c2)c(OCCN(C)C)c1 [Compound 19, N-(4-chloro-3-(trifluoromethyl)phenyl)-2-(2-(dimethylamino)ethoxy)-4-ethoxybenzamide]
EC50 [3]: 1.85 nM

CCOc1cccc(O)c1C(=O)Nc1ccc(Cl)c(C(F)(F)F)c1 [Compound 25, N-[4-chloro-3-(trifluoromethyl)phenyl]-2-ethoxy-6-hydroxybenzamide]
effect on CBP, initial screening (FIG. 13) [4]: activated only CBP

CCOc1cccc(O)c1CNc1ccc(Cl)c(C(F)(F)F)c1 [Compound 26, 2-[((4-chloro-3-(trifluoromethyl)phenyl)amino)methyl]-3-ethoxyphenol]
effect on CBP, initial screening (FIG. 13) [4]: activated only CBP

CCOc1cccc(OCCN(C)C)c1C(=O)Nc1ccc(Cl)c(C(F)(F)F)c1 [Compound D, N-[4-chloro-3-(trifluoromethyl)phenyl]-2-[2-(dimethyl-amino)ethoxy]-6-ethoxybenzamide]
safety in acute toxicity tests [5]: safe | EC50 [3]: 3.81 nM | BBB permeability [6]: BBB permeant | membrane permeability [1]: membrane permeable | EC50 [7]: > 200000 nM | histone acetylation [8]: increases histone acetylation | EC50 ([4]; histone 3 acetyl acceptor, acetyl-CoA, room temperature): 4.5 nM | solubility [2]: soluble | Aβ-induced reduction of LTP [9]: rescues

CC(C)(SN=O)[C@H](N)C(=O)O [S-nitroso penicillamine]
protection against Aβ-induced neurotoxicity [10]: exerts a neuroprotective effect

CC(/C=C/C(=O)NO)=C\[C@@H](C)C(=O)c1ccc(N(C)C)cc1 [TSA]
LTP [11]: ameliorates | contextual fear conditioning (FC) / contextual learning [12]: ameliorates

Cc1cc(-c2ccccc2)nnc1NCCN1CCOCC1 [minaprine]
brain/blood ratio [13]: > 2

COc1ccc(C2CNC(=O)C2)cc1OC1CCCC1 (stereo not shown) [rolipram]
LTP [11]: ameliorates deficits | contextual fear conditioning (FC) / contextual learning [12]: ameliorates deficits
